Laboratory results reported in patent publication US11672251B2, “Herbicidally active pyridyl-/pyrimidyl-pyrimidine derivatives” (Syngenta Participations AG, priority 2017, dated 2023).

Legend:
Format in all cases: in vivo
[1] = tested on: Amaranthus retroflexus (AMARE); assay: B1 pre-emergence herbicidal activity; conditions: Test 1a, rate 1000 g/ha, evaluated after 13 days, scale 5=total damage to plant, 0=no damage to plant
Description: (§1) Seeds of a variety of test species were sown in standard soil in pots: Triticum aestivium (TRZAW), Avena fatua (AVEFA), Alopecurus myosuroides (ALOMY), Echinochloa crus-galli (ECHCG), Lolium perenne (LOLPE), Zea Mays (ZEAMX), Abutilon theophrasti (ABUTH), Amaranthus retroflexus (AMARE) and Setaria faberi (SETFA). After cultivation for one day (pre-emergence) under controlled conditions in a glasshouse (at 24/16° C., day/night; 14 hours light; 65% humidity), the plants were sprayed with an aqueous spray solution derived from the formulation of the technical active ingredient in acetone/water (50:50) solution containing 0.5% Tween 20 (polyoxyethelyene sorbitan monolaurate, CAS RN 9005-64-5). The test plants were then grown in a glasshouse under controlled conditions (at 24/16° C., day/night; 14 hours light; 65% humidity) and watered twice daily. After 13 days, the test was evaluated (5=total damage to plant; 0=no damage to plant).

Lolium perenne (LOLPE) [2] = assay: B1 pre-emergence herbicidal activity; conditions: rate 1000 g/ha, evaluated after 13 days, scale 5=total damage to plant, 0=no damage to plant
Description: as §1

Setaria faberi (SETFA) [3] = assay: B1 pre-emergence herbicidal activity; conditions: rate 1000 g/ha, evaluated after 13 days, scale 5=total damage to plant, 0=no damage to plant
Description: as §1

[4] = tested on: Abutilon theophrasti (ABUTH); assay: B1 pre-emergence herbicidal activity; conditions: Test 1a, rate 1000 g/ha, evaluated after 13 days, scale 5=total damage to plant, 0=no damage to plant
Description: as §1

Zea Mays (ZEAMX) [5] = assay: B1 pre-emergence herbicidal activity; conditions: Test 1a, rate 1000 g/ha, evaluated after 13 days, scale 5=total damage to plant, 0=no damage to plant
Description: as §1

[6] = tested on: Echinochloa crus-galli (ECHCG); assay: B1 pre-emergence herbicidal activity; conditions: rate 1000 g/ha, evaluated after 13 days, scale 5=total damage to plant, 0=no damage to plant
Description: as §1

[7] = tested on: Amaranthus retroflexus (AMARE); assay: B2 post-emergence herbicidal activity; conditions: Test B2a; post-emergence (sprayed after 8 days cultivation); rate 1000 g/ha; evaluated after 13 days; scale 5=total damage to plant, 0=no damage to plant
Description: (§2) Seeds of a variety of test species were sown in standard soil in pots: Triticum aestivium (TRZAW), Avena fatua (AVEFA), Alopecurus myosuroides (ALOMY), Echinochloa crus-galli (ECHCG), Lolium perenne (LOLPE), Zea Mays (ZEAMX), Abutilon theophrasti (ABUTH), Amaranthus retroflexus (AMARE) and Setaria faberi (SETFA). After 8 days cultivation (post-emergence) under controlled conditions in a glasshouse (at 24/16° C., day/night; 14 hours light; 65% humidity), the plants were sprayed with an aqueous spray solution derived from the formulation of the technical active ingredient in acetone/water (50:50) solution containing 0.5% Tween 20 (polyoxyethelyene sorbitan monolaurate, CAS RN 9005-64-5). The test plants were then grown in a glasshouse under controlled conditions (at 24/16° C., day/night; 14 hours light; 65% humidity) and watered twice daily. After 13 days, the test was evaluated (5=total damage to plant; 0=no damage to plant).

Lolium perenne (LOLPE) [8] = assay: B2 post-emergence herbicidal activity; conditions: post-emergence (sprayed after 8 days cultivation), rate 1000 g/ha, evaluated after 13 days, scale 5=total damage to plant, 0=no damage to plant
Description: as §2

Setaria faberi (SETFA) [9] = assay: B2 post-emergence herbicidal activity; conditions: post-emergence (sprayed after 8 days cultivation), rate 1000 g/ha, evaluated after 13 days, scale 5=total damage to plant, 0=no damage to plant
Description: as §2

[10] = tested on: Abutilon theophrasti (ABUTH); assay: B2 post-emergence herbicidal activity; conditions: Test B2a; post-emergence (sprayed after 8 days cultivation); rate 1000 g/ha; evaluated after 13 days; scale 5=total damage to plant, 0=no damage to plant
Description: as §2

Zea Mays (ZEAMX) [11] = assay: B2 post-emergence herbicidal activity; conditions: Test B2a; post-emergence (sprayed after 8 days cultivation); rate 1000 g/ha; evaluated after 13 days; scale 5=total damage to plant, 0=no damage to plant
Description: as §2

[12] = tested on: Echinochloa crus-galli (ECHCG); assay: B2 post-emergence herbicidal activity; conditions: post-emergence (sprayed after 8 days cultivation), rate 1000 g/ha, evaluated after 13 days, scale 5=total damage to plant, 0=no damage to plant
Description: as §2

[13] = tested on: Alopecurus myosuroides (ALOMY); assay: B1 pre-emergence herbicidal activity; conditions: Test 1b, rate 1000 g/ha, evaluated after 13 days, scale 5=total damage to plant, 0=no damage to plant
Description: as §1

Avena fatua (AVEFA) [14] = assay: B1 pre-emergence herbicidal activity; conditions: Test 1b, rate 1000 g/ha, evaluated after 13 days, scale 5=total damage to plant, 0=no damage to plant
Description: as §1

[15] = tested on: Triticum aestivium (TRZAW); assay: B1 pre-emergence herbicidal activity; conditions: Test 1b, rate 1000 g/ha, evaluated after 13 days, scale 5=total damage to plant, 0=no damage to plant
Description: as §1

[16] = tested on: Alopecurus myosuroides (ALOMY); assay: B2 post-emergence herbicidal activity; conditions: Test B2b; post-emergence (sprayed after 8 days cultivation); rate 1000 g/ha; evaluated after 13 days; scale 5=total damage to plant, 0=no damage to plant
Description: as §2

Avena fatua (AVEFA) [17] = assay: B2 post-emergence herbicidal activity; conditions: Test B2b; post-emergence (sprayed after 8 days cultivation); rate 1000 g/ha; evaluated after 13 days; scale 5=total damage to plant, 0=no damage to plant
Description: as §2

[18] = tested on: Triticum aestivium (TRZAW); assay: B2 post-emergence herbicidal activity; conditions: Test B2b; post-emergence (sprayed after 8 days cultivation); rate 1000 g/ha; evaluated after 13 days; scale 5=total damage to plant, 0=no damage to plant
Description: as §2

Row | Structure (SMILES) | Control after pre-emergence application, damage score: AMARE [1] | Control after pre-emergence application, damage score: LOLPE (Lolium perenne (LOLPE) [2]; Test 1a) | Control after pre-emergence application, damage score: SETFA (Setaria faberi (SETFA) [3]; Test 1a) | Control after pre-emergence application, damage score: ABUTH [4] | Control after pre-emergence application, damage score: ZEAMX (Zea Mays (ZEAMX) [5]) | Control after pre-emergence application, damage score: ECHCG ([6]; Test 1a) | Control after post-emergence application, damage score: AMARE [7] | Control after post-emergence application, damage score: LOLPE (Lolium perenne (LOLPE) [8]; Test B2a) | Control after pre-emergence application, damage score: LOLPE (Lolium perenne (LOLPE) [2]; Test 1b) | Control after pre-emergence application, damage score: SETFA (Setaria faberi (SETFA) [3]; Test 1b) | Control after pre-emergence application, damage score: ALOMY [13] | Control after pre-emergence application, damage score: AVEFA (Avena fatua (AVEFA) [14]) | Control after pre-emergence application, damage score: ECHCG ([6]; Test 1b) | Control after pre-emergence application, damage score: TRAZW [15] | Control after post-emergence application, damage score: LOLPE (Lolium perenne (LOLPE) [8]; Test B2b) | Control after post-emergence application, damage score: SETFA (Setaria faberi (SETFA) [9]; Test B2b) | Control after post-emergence application, damage score: ALOMY [16] | Control after post-emergence application, damage score: AVEFA (Avena fatua (AVEFA) [17]) | Control after post-emergence application, damage score: ECHCG ([12]; Test B2b) | Control after post-emergence application, damage score: TRAZW [18] | also measured
1 | CNc1cnc(-c2cncc(F)c2)nc1C [Compound D1, 2-(5-fluoro-3-pyridyl)-N,4-dimethyl-pyrimidin-5-amine] | 1 | 0 | 3 | 1 | 0 | 1 | 0 | 1 | – | – | – | – | – | – | – | – | – | – | – | – | Control after post-emergence application, damage score: SETFA (Setaria faberi (SETFA) [9]; Test B2a): 3; Control after post-emergence application, damage score: ABUTH [10]: 0; Control after post-emergence application, damage score: ZEAMX (Zea Mays (ZEAMX) [11]): 1; Control after post-emergence application, damage score: ECHCG ([12]; Test B2a): 2
2 | Cc1nc(-c2cncc(F)c2)ncc1N [Compound D2, 2-(5-fluoro-3-pyridyl)-4-methyl-pyrimidin-5-amine] | 1 | 0 | 2 | 1 | 0 | 1 | 1 | 1 | – | – | – | – | – | – | – | – | – | – | – | – | Control after post-emergence application, damage score: SETFA (Setaria faberi (SETFA) [9]; Test B2a): 3; Control after post-emergence application, damage score: ABUTH [10]: 1; Control after post-emergence application, damage score: ZEAMX (Zea Mays (ZEAMX) [11]): 1; Control after post-emergence application, damage score: ECHCG ([12]; Test B2a): 2
3 | Nc1cnc(-c2cncnc2)nc1C(F)(F)F [Compound D9] | – | – | – | – | – | – | – | – | 1 | 4 | 0 | 2 | 3 | 0 | 2 | 5 | 0 | 3 | 3 | 0 | –
4 | Nc1cnc(-c2cncc(F)c2)nc1C(F)(F)F [Compound D5, 2-(5-fluoro-3-pyridyl)-4-(trifluoromethyl)pyrimidin-5-amine] | – | – | – | – | – | – | – | – | 1 | 5 | 1 | 4 | 4 | 0 | 3 | 5 | 1 | 4 | 4 | 1 | –
5 | CCN(CC)c1cnc(-c2cncc(F)c2)nc1C(F)(F)F [Compound D12] | – | – | – | – | – | – | – | – | 0 | 5 | 0 | 0 | 1 | 0 | 2 | 5 | 0 | 3 | 5 | 1 | –
6 | CNc1cnc(-c2cncc(F)c2)nc1C(F)(F)F [Compound D6] | – | – | – | – | – | – | – | – | 1 | 4 | 0 | 1 | 4 | 0 | 3 | 5 | 0 | 2 | 5 | 1 | –
